How the values were obtained:
Format in all cases: in vivo
Soybean [1] = assay: post-emergence herbicide test; conditions: Glycine max, post-emergence, 0.25 lb/A; read-out: % plant inhibition
Procedure, shortened: (§1)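 Each pan is moved to a spraying chamber when plants are two to three weeks old and sprayed by atomizer at 10 psig, delivering 1870 L/Ha containing about 0.4% by volume emulsifier. Greenhouse-grown from seed; percent inhibition scored.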

Common Chickweed [2] = assay: post-emergence herbicide test; conditions: post-emergence, 0.25 lb/A; read-out: % plant inhibition
Procedure, shortened: as §1

Rape [3] = assay: post-emergence herbicide test; conditions: post-emergence, 0.25 lb/A; read-out: % plant inhibition
Procedure, shortened: as §1

Birdseye Speedwell [4] = assay: post-emergence herbicide test; conditions: post-emergence, 0.25 lb/A; read-out: % plant inhibition
Procedure, shortened: as §1

Morning Glory [5] = assay: post-emergence herbicide test; conditions: Ipomoea, post-emergence, 0.25 lb/A; read-out: % plant inhibition
Procedure, shortened: as §1

Giant Foxtail [6] = assay: post-emergence herbicide test; conditions: Setaria faberi, post-emergence, 0.25 lb/A; read-out: % plant inhibition
Procedure, shortened: as §1

Downy Brome [7] = assay: post-emergence herbicide test; conditions: Bromus tectorum, post-emergence, 0.25 lb/A; read-out: % plant inhibition
Procedure, shortened: as §1

Velvetleaf [8] = assay: post-emergence herbicide test; conditions: Abutilon theophrasti, post-emergence, 0.25 lb/A; read-out: % plant inhibition
Procedure, shortened: as §1

Seedling Johnsongrass [9] = assay: post-emergence herbicide test; conditions: Sorghum halepense, post-emergence, 0.25 lb/A; read-out: % plant inhibition
Procedure, shortened: as §1

Wild Oats [10] = assay: post-emergence herbicide test; conditions: Avena fatua, post-emergence, 0.25 lb/A; read-out: % plant inhibition
Procedure, shortened: as §1

Corn [11] = assay: post-emergence herbicide test; conditions: Zea mays, post-emergence, 0.25 lb/A; read-out: % plant inhibition
Procedure, shortened: as §1

Wheat [12] = assay: post-emergence herbicide test; conditions: Triticum aestivum, post-emergence, 0.25 lb/A; read-out: % plant inhibition
Procedure, shortened: as §1

Blackgrass [13] = assay: post-emergence herbicide test; conditions: Alopecurus myosuroides, post-emergence, 0.25 lb/A; read-out: % plant inhibition
Procedure, shortened: as §1

Cocklebur [14] = assay: post-emergence herbicide test; conditions: Xanthium strumarium, post-emergence, 0.25 lb/A; read-out: % plant inhibition
Procedure, shortened: as §1

Bedstraw Catchweed [15] = assay: post-emergence herbicide test; conditions: Galium aparine, post-emergence, 0.25 lb/A; read-out: % plant inhibition
Procedure, shortened: as §1

Green Foxtail [16] = assay: post-emergence herbicide test; conditions: Setaria viridis, post-emergence, 0.25 lb/A; read-out: % plant inhibition
Procedure, shortened: as §1

Barnyardgrass [17] = assay: post-emergence herbicide test; conditions: Echinochloa crus-galli, post-emergence, 0.25 lb/A; read-out: % plant inhibition
Procedure, shortened: as §1

Soybean [18] = assay: pre-emergence herbicide test; conditions: Glycine max, pre-emergence, 0.25 lb/A; read-out: % plant inhibition
Procedure, shortened: (§2)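 Steps: compact topsoil in pan; place seeds; level-fill with cover soil; add a known amount of compound before or after covering; keep pans in greenhouse, bottom-watering as needed; rate % inhibition at about 14 days.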

Common Chickweed [19] = assay: pre-emergence herbicide test; conditions: pre-emergence, 0.25 lb/A; read-out: % plant inhibition
Procedure, shortened: as §2

Rape [20] = assay: pre-emergence herbicide test; conditions: pre-emergence, 0.25 lb/A; read-out: % plant inhibition
Procedure, shortened: as §2

Birdseye Speedwell [21] = assay: pre-emergence herbicide test; conditions: pre-emergence, 0.25 lb/A; read-out: % plant inhibition
Procedure, shortened: as §2

Morning Glory [22] = assay: pre-emergence herbicide test; conditions: Ipomoea, pre-emergence, 0.25 lb/A; read-out: % plant inhibition
Procedure, shortened: as §2

Giant Foxtail [23] = assay: pre-emergence herbicide test; conditions: Setaria faberi, pre-emergence, 0.25 lb/A; read-out: % plant inhibition
Procedure, shortened: as §2

Downy Brome [24] = assay: pre-emergence herbicide test; conditions: Bromus tectorum, pre-emergence, 0.25 lb/A; read-out: % plant inhibition
Procedure, shortened: as §2

Velvetleaf [25] = assay: pre-emergence herbicide test; conditions: Abutilon theophrasti, pre-emergence, 0.25 lb/A; read-out: % plant inhibition
Procedure, shortened: as §2

Seedling Johnsongrass [26] = assay: pre-emergence herbicide test; conditions: Sorghum halepense, pre-emergence, 0.25 lb/A; read-out: % plant inhibition
Procedure, shortened: as §2

Wild Oats [27] = assay: pre-emergence herbicide test; conditions: Avena fatua, pre-emergence, 0.25 lb/A; read-out: % plant inhibition
Procedure, shortened: as §2

Corn [28] = assay: pre-emergence herbicide test; conditions: Zea mays, pre-emergence, 0.25 lb/A; read-out: % plant inhibition
Procedure, shortened: as §2

Wheat [29] = assay: pre-emergence herbicide test; conditions: Triticum aestivum, pre-emergence, 0.25 lb/A; read-out: % plant inhibition
Procedure, shortened: as §2

Blackgrass [30] = assay: pre-emergence herbicide test; conditions: Alopecurus myosuroides, pre-emergence, 0.25 lb/A; read-out: % plant inhibition
Procedure, shortened: as §2

Cocklebur [31] = assay: pre-emergence herbicide test; conditions: Xanthium strumarium, pre-emergence, 0.25 lb/A; read-out: % plant inhibition
Procedure, shortened: as §2

Bedstraw Catchweed [32] = assay: pre-emergence herbicide test; conditions: Galium aparine, pre-emergence, 0.25 lb/A; read-out: % plant inhibition
Procedure, shortened: as §2

Green Foxtail [33] = assay: pre-emergence herbicide test; conditions: Setaria viridis, pre-emergence; 0.25 lb/A; read-out: % plant inhibition
Procedure, shortened: as §2

Barnyardgrass [34] = assay: pre-emergence herbicide test; conditions: Echinochloa crus-galli, pre-emergence, 0.25 lb/A; read-out: % plant inhibition
Procedure, shortened: as §2

SMILES | inhibition at 280.212 g/ha (Soybean [1]) [%] | inhibition at 280.212 g/ha (Common Chickweed [2]) [%] | inhibition at 280.212 g/ha (Rape [3]) [%] | inhibition at 280.212 g/ha (Birdseye Speedwell [4]) [%] | inhibition at 280.212 g/ha (Morning Glory [5]) [%] | inhibition at 280.212 g/ha (Giant Foxtail [6]) [%] | inhibition at 280.212 g/ha (Downy Brome [7]) [%] | inhibition at 280.212 g/ha (Velvetleaf [8]) [%] | inhibition at 280.212 g/ha (Seedling Johnsongrass [9]) [%] | inhibition at 280.212 g/ha (Wild Oats [10]) [%] | inhibition at 280.212 g/ha (Corn [11]) [%] | inhibition at 280.212 g/ha (Wheat [12]) [%] | inhibition at 280.212 g/ha (Blackgrass [13]) [%] | inhibition at 280.212 g/ha (Cocklebur [14]) [%] | inhibition at 280.212 g/ha (Bedstraw Catchweed [15]) [%] | inhibition at 280.212 g/ha (Green Foxtail [16]) [%] | inhibition at 280.212 g/ha (Barnyardgrass [17]) [%] | inhibition at 280.212 g/ha (Soybean [18]) [%] | inhibition at 280.212 g/ha (Common Chickweed [19]) [%] | inhibition at 280.212 g/ha (Rape [20]) [%] | also measured
C=CCOC(=O)c1cc(-c2nn(C)c(C(F)(F)F)c2C)c(F)cc1Cl [Compound 54] | 80 | 90 | 75 | 100 | 80 | 90 | 70 | 100 | 90 | 80 | 35 | 16 | 30 | 99 | 98 | 98 | 95 | 5 | 90 | 0 | inhibition at 280.212 g/ha (Birdseye Speedwell [21]): 98%; inhibition at 280.212 g/ha (Morning Glory [22]): 40%; inhibition at 280.212 g/ha (Giant Foxtail [23]): 99%; inhibition at 280.212 g/ha (Downy Brome [24]): 75%; inhibition at 280.212 g/ha (Velvetleaf [25]): 100%; inhibition at 280.212 g/ha (Seedling Johnsongrass [26]): 99%; inhibition at 280.212 g/ha (Wild Oats [27]): 30%; inhibition at 280.212 g/ha (Corn [28]): 10%; inhibition at 280.212 g/ha (Wheat [29]): 5%; inhibition at 280.212 g/ha (Blackgrass [30]): 35%; inhibition at 280.212 g/ha (Cocklebur [31]): 35%; inhibition at 280.212 g/ha (Bedstraw Catchweed [32]): 80%; inhibition at 280.212 g/ha (Green Foxtail [33]): 100%; inhibition at 280.212 g/ha (Barnyardgrass [34]): 100%
Cc1c(-c2ccc(Cl)cc2)nn(C)c1C(F)(F)F [Compound 7, 3-(4-chlorophenyl)-1,4-dimethyl-5-(trifluoromethyl)pyrazole] | 5 | 0 | 0 | 65 | 0 | 0 | 5 | 5 | 0 | 5 | 0 | 5 | 5 | 0 | 35 | 20 | 0 | 0 | 0 | 0 | inhibition at 280.212 g/ha (Birdseye Speedwell [21]): 0%; inhibition at 280.212 g/ha (Morning Glory [22]): 0%; inhibition at 280.212 g/ha (Giant Foxtail [23]): 15%; inhibition at 280.212 g/ha (Downy Brome [24]): 0%; inhibition at 280.212 g/ha (Velvetleaf [25]): 0%; inhibition at 280.212 g/ha (Seedling Johnsongrass [26]): 25%; inhibition at 280.212 g/ha (Wild Oats [27]): 0%; inhibition at 280.212 g/ha (Corn [28]): 0%; inhibition at 280.212 g/ha (Wheat [29]): 0%; inhibition at 280.212 g/ha (Blackgrass [30]): 0%; inhibition at 280.212 g/ha (Cocklebur [31]): 0%; inhibition at 280.212 g/ha (Bedstraw Catchweed [32]): 5%; inhibition at 280.212 g/ha (Green Foxtail [33]): 0%; inhibition at 280.212 g/ha (Barnyardgrass [34]): 0%
CCCCCCCCCCCCOC(=O)c1cc(-c2nn(C)c(C(F)(F)F)c2C)c(F)cc1Cl [Compound 49] | 5 | 10 | 20 | 80 | 5 | 0 | 20 | 10 | 5 | 20 | 5 | 10 | 20 | 50 | 35 | 60 | 0 | 0 | 5 | 0 | inhibition at 280.212 g/ha (Birdseye Speedwell [21]): 55%; inhibition at 280.212 g/ha (Morning Glory [22]): 40%; inhibition at 280.212 g/ha (Giant Foxtail [23]): 10%; inhibition at 280.212 g/ha (Downy Brome [24]): 5%; inhibition at 280.212 g/ha (Velvetleaf [25]): 0%; inhibition at 280.212 g/ha (Seedling Johnsongrass [26]): 45%; inhibition at 280.212 g/ha (Wild Oats [27]): 5%; inhibition at 280.212 g/ha (Corn [28]): 0%; inhibition at 280.212 g/ha (Wheat [29]): 0%; inhibition at 280.212 g/ha (Blackgrass [30]): 5%; inhibition at 280.212 g/ha (Cocklebur [31]): 0%; inhibition at 280.212 g/ha (Bedstraw Catchweed [32]): 5%; inhibition at 280.212 g/ha (Green Foxtail [33]): 60%; inhibition at 280.212 g/ha (Barnyardgrass [34]): 75%
